Data published in patent US10933079B2, “Oligonucleotide analogues incorporating 5-aza-cytosine therein” (Astex Pharmaceuticals, Inc., priority 2005, dated 2021).

Experiments:
[1] = tested on: CMV-EE210 cell line containing the epigenetically silenced GFP transgene (CMV promoter); experiment: cell-based GFP assay for DNA methylation (reactivation of silenced GFP transgene)
Method: The demethylating activity of DpG and GpD di-, tri-, and tetranucleotides were tested in a cell-based GFP (green fluorescent protein) assay. This assay, which is schematically illustrated in FIG. 25, has a GFP gene regulated by the CMV promoter and is sensitive to the methylation of CpG sites within the promoter. A decrease in methylation resulting from exposure to a methylation inhibitor leads to GFP expression and is readily scored. Specifically, the CMV-EE210 cell line containing the epigenetically silenced GFP transgene was used to assay for reactivation of GFP expression by flow cytometry. CMV-EE210 was made by transfecting NIH 3T3 cells with the pTR-UF/UF1/UF2 plasmid (Zolotuhin et al., 1996), which is comprised of pBS(+) (Stratagene, Inc.) containing a cytomegalovirus (CMV) promoter driving a humanized GFP gene adapted for expression in mammalian cells. After transfection, high-level GFP expressing cells were initially selected by FACS analysis and sorting using a MoFlo cytometer (Cytomation, Inc.). Decitabine, potent inhibitor of mammalian DNMT1, was used as a positive control. […] Wells were scored g1 positive if (10%) of viable cells express GFP, g2 positive if 30% of viable cells express GFP and g3 if >75% of the viable cells express GFP. […]

[2] = cited from earlier work

Nc1ncn([C@H]2C[C@H](O)[C@@H](CO)O2)c(=O)n1 [Decitabine, 5-aza-2′-deoxycytidine]
GFP Expression Level ([1]; CMV-EE210 cells, three days, decitabine at 1 μM, test compound at 30-50 μM, fluorescent microscope scoring): g3 (g3 if >75% of the viable cells express GFP) | IC50 ([1]; GFP 50: dose at which the GFP expression level goes from g3 to g1/2, preliminary screening): 500 nM | total urinary excretion ([2]; humans): less than 1 % of the administered dose | penetration into the cerebrospinal fluid ([2]; man, end of a 36-hour intravenous infusion): 14-21 % of the plasma concentration
